Results from PubChem BioAssay (NCI).
Where “and” joins values, the source holds several entries; their conditions need not be identical. Identical values can stand only once.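 Compound exposure: 48 hours, 5 concentrations, 96-well plates. The concentration for 50% growth inhibition is given as GI50. TGI: concentration producing complete growth inhibition.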

How the values were obtained:
Experiment in all cases: DTP human tumour cell line panel, 48 h
[1] = test system: KM12 colon
[2] = test system: M14 melanoma
[3] = test system: MALME-3M melanoma
[4] = test system: MDA-MB-231 breast
[5] = test system: OVCAR-5 ovarian
[6] = test system: RPMI-8226 leukemia
[7] = test system: SF-539 CNS
[8] = test system: SK-MEL-5 melanoma
[9] = test system: K-562 leukemia
[10] = test system: LOX IMVI melanoma

| Compound | TGI [1] [µM] | TGI [2] [µM] | TGI [3] | TGI [4] [µM] | TGI [5] | TGI [6] [µM] | TGI [7] | TGI [8] [µM] | TGI [9] [µM] | TGI [10] | GI50 [6] [µM] | GI50 [10] [nM] | GI50 [5] [nM] |
| --- | --- | --- | --- | --- | --- | --- | --- | --- | --- | --- | --- | --- | --- |
| O=C1CCCC2=C1C(c1ccc3c(c1)OCO3)Nc1ccc3ccccc3c12 (stereo unspecified) | > 100 | > 100 | > 100 µM | > 100 | > 100 µM | > 100 | > 100 µM | > 100 | – | – | – | – | – |
| O=C(NCCCCNCCCNC(=O)c1ccccc1)c1ccccc1 | > 100 | > 100 | – | > 100 | > 100 µM | > 100 | > 100 µM | > 100 | > 100 | – | – | – | – |
| Cc1cc(N=Cc2c(CO)cnc(C)c2O)c(N=Cc2c(CO)cnc(C)c2O)cc1C.[Zn] | > 100 | > 100 | – | > 100 | > 100 µM | > 100 | > 100 µM | > 100 | – | > 100 µM | > 100 | – | – |
| COc1ccc(C[C@H](N)C(=O)N2C[C@H](CO)C[C@H](n3cnc4c(N(C)C)ncnc43)C2)cc1 | > 100 | > 100 | > 100 µM | – | > 100 µM | > 100 | > 100 µM | > 100 | > 100 | > 100 µM | – | – | – |
| OCC(O)C1OC2CC1Nc1ccccc1N2 (stereo unspecified) | > 100 | – | > 100 µM | > 100 | – | > 100 | > 100 µM | > 100 | > 100 | > 100 µM | – | – | – |
| CN(C)CCCNc1c2ccccc2nc2cccc([N+](=O)[O-])c12 | – | 0.00165 | 0.00221 µM and 0.0136 µM | 0.00712 | 0.0214 µM and 0.0509 µM | – | 0.00757 µM and 0.0252 µM | < 0.001 | > 100 | – | – | 19 | 19.7 |
| CC(=O)NC1C(OCc2ccccc2)OC(CO)C(O)C1OCC(=O)NC(C)C(=O)NC(CCC(=O)NCCCCCNc1c2ccccc2nc2cccc([N+](=O)[O-])c12)C(N)=O (stereo unspecified) | < 0.0001 | < 0.0001 | < 0.0001 µM | < 0.0001 | – | < 0.0001 | 0.00116 µM | 0.00124 | < 0.0001 | 0.0147 µM and 0.014 µM | – | – | – |
| C=C(CC(=O)Nc1ccc(C(=O)OC)o1)C(=O)OC | 42.5 | 36.1 | 39.3 µM | 58.2 | 35.5 µM | – | 36.1 µM | 43.1 | – | > 100 µM | – | – | – |
| Cn1c(-c2ccc[se]2)ccc1-c1ccc(CO)[se]1 | > 100 | > 100 | 40.4 µM | > 88.2 | – | > 100 | > 100 µM | > 100 | > 100 | > 64.1 µM | – | – | – |
| COc1ccc(C[C@H](N)C(=O)N2C[C@H](CO)C[C@H](n3ccc(=O)[nH]c3=O)C2)cc1 | > 100 | > 100 | > 100 µM | – | > 100 µM | > 100 | > 100 µM | > 100 | > 100 | > 100 µM | – | – | – |
| O=C1C=C2CO[C@H]3OC[C@H](O)[C@@H]1[C@@H]23 | > 100 | > 100 | 55 µM | > 100 | > 100 µM | 44.8 | – | > 100 | > 100 | > 100 µM | – | – | – |
| CC(C)(C)OC(=O)NC(Cc1ccc(O)cn1)C(N)=O (stereo unspecified) | > 100 | – | > 100 µM | > 100 | > 100 µM | > 100 | > 100 µM | > 100 | – | > 100 µM | – | – | – |
| NS(=O)(=O)c1ccc(Nc2c3ccccc3nc3c(C(=O)NCCCN(CCO)CCO)cccc23)cc1 | 38.5 | 45.1 | 42 µM | > 100 | 98.4 µM | 78.7 | – | 32.4 | > 100 | 59.1 µM | – | – | – |
| O=C(CN1CCCCC1)c1ccc2c(c1)Sc1ccccc1O2 | 30.1 | 28.5 | 33.4 µM | 37.2 | 30 µM | > 100 | 30.6 µM | – | > 100 | 40.3 µM | – | – | – |
| COc1ccccc1NC(=S)N/N=C(/C)c1ccccn1 | > 100 | 2.54 | 16.7 µM | 7.46 | > 100 µM | > 100 | 14.9 µM | – | > 100 | 67.2 µM | – | – | – |
| CCOC(=O)CCc1c(C(=O)OCC)[nH]c(/C=C2\NC(=O)C(C)=C2CC)c1C | > 100 | > 100 | 41.1 µM | 52.6 | 86.3 µM | > 100 | 69.6 µM | – | > 100 | > 100 µM | – | – | – |
| Cc1ccc(C)c(COCCOCn2cc(Br)c(N)nc2=O)c1 | > 100 | > 100 | > 100 µM | > 100 | > 100 µM | – | > 100 µM | – | > 100 | > 100 µM | – | – | – |
| COc1c(OC)c(O)c2c(=O)c(OC)c(-c3ccc4c(c3)OCO4)oc2c1O | > 100 | > 100 | > 100 µM | > 100 | > 100 µM | – | > 100 µM | > 100 | > 100 | > 100 µM | – | – | – |
| CN(C)CCOC(=O)c1ccc(N)cc1 | > 100 | 34.8 | > 100 µM | 41.1 | > 100 µM | 75.2 | – | > 100 | > 100 | > 100 µM | – | – | – |
| CC(=Nc1c2ccccc2nc2ccccc12)N(C)C | – | 25.4 | > 100 µM | 30.4 | > 100 µM | 38.2 | – | 27.8 | 25.4 | 26.7 µM | – | – | – |
| CCc1nn(S(=O)(=O)c2ccc(C)cc2)c2c1CS(=O)(=O)CC2 | > 100 | > 100 | – | > 100 | > 100 µM | > 100 | > 100 µM | > 100 | > 100 | – | – | – | – |
| C[C@@H]1C[C@]2(C[C@@H](C)[C@H]3C(C[C@@]4(C)CCC[C@@H]5C6=C[C@H](CCC34C)OC6=CC(=O)OC5(C)C)O2)OC1=O (stereo partly specified) | > 51.5 | – | – | – | > 51.5 µM | > 51.5 | > 51.5 µM | > 51.5 | > 51.5 | > 51.5 µM | – | – | – |
| CO/C(=N\N=C\c1ccc(Cl)cc1Cl)c1ccncc1 | > 10 | > 10 | > 10 µM | > 10 | > 10 µM | > 10 | – | – | > 10 | > 10 µM | – | – | – |
